From patent US20220049238A1, “Synthetic Matrix Assembled and Rapidly Templated Spheroids, Organoids and 3D Cell Cultures” (Rutgers, The State University of New Jersey, priority 2020, published 2022) come the findings set out here.

The data set deals with IPSC-NSC. The data set is described as follows: Neuronal differentiation of hybrid spheroids with DAPT loaded on nanosheets (qPCR, immunostaining). It counts as cell-based. The procedure: Lastly, because Mn^2+ ions are MRI active, they could be used for MRI monitoring of degradation and drug release. A 7-day degradation study was performed, and it was shown that the Mn2+ ions generated correlated with the amount of the fluorescent model drug that was released, showing that the drug was released through the degradation of the scaffold nanosheets. After confirming the drug loading and degradation properties of the scaffold nanosheets and the hybrid spheroids, varying concentrations of DAPT were then loaded on the surface of the nanosheets at […] of from 0 to 50 μM. The spheres were cultured for 7 days and then the neuronal differentiation was analyzed using both qPCR and immunostaining.

Where [1] appears, read: day 7, loaded concentration of 5 and 10 μM.

Structures are written as SMILES.

Turning to `C[C@H](NC(=O)Cc1cc(F)cc(F)c1)C(=O)N[C@H](C(=O)OC(C)(C)C)c1ccccc1` [DAPT, N-[N-(3,5-difluorophenacetyl)-L-alanyl]-S-phenylglycine t-butyl ester], under “50 μM condition”, the cell death entry is listed as “significant cell death” and the neurogenesis entry was “impaired neurogenesis”. Further, under setting [1], the “Tuj1 positive cells by immunostaining” value was “significant increase in Tuj1 positive cells”; the axon length entry was “longer axons”; the “increase in mRNA expression of Tuj1” value is on record as “ca. 1.8 fold”; the “mature phenotype markers Map2 and NeuN (qPCR and immunostaining)” value is “increase in mature phenotype markers”.
